Assays:
Assay type in all cases: in vivo
Settings in all cases: 14 days after application
[1] = test system: barnyardgrass (Echinochloa crus-galli, ECHCG); experiment: Pre-emerge greenhouse herbicide activity screening, phytotoxicity rating
In short: (§1)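 Ratings taken 14 days after treatment on a 0–100 scale, 100 meaning complete plant death. Post-emerge: 2-3 leaf plants, 0.25% v/v surfactant added; pre-emerge: seeds sown a day ahead, soil surface-watered after spraying. Rates 15–1000 g ai/ha in acetone, 187 l/ha.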

[2] = test system: common ragweed (Ambrosia artemisiifolia L., AMBEL); experiment: as above
In short: as §1

[3] = test system: green foxtail (Setaria viridis, SETVI); experiment: as above
In short: as §1

[4] = test system: ivyleaf morningglory (Ipomoea hederacea, IPOHE); experiment: as above
In short: as §1

[5] = test system: johnsongrass (Sorghum halepense, SORHA); experiment: as above
In short: as §1

[6] = test system: lambsquarters (Chenopodium album, CHEAL); experiment: as above
In short: as §1

[7] = test system: large crabgrass (Digitaria sanguinalis, DIGSA); experiment: as above
In short: as §1

[8] = test system: redroot pigweed (Amaranthus retroflexus, AMARE); experiment: as above
In short: as §1

[9] = test system: sicklepod (Cassia obtusifolia, CASOB); experiment: as above
In short: as §1

[10] = test system: velvetleaf (Abutilon theophrasti, ABUTH); experiment: as above
In short: as §1

[11] = test system: field corn (Zea mays L., var. Dekalb 535, CORN); experiment: Pre-emerge greenhouse screening, crop safety (phytotoxicity rating)
In short: as §1

[12] = test system: soybean (Glycine max L., var. Pella 86, SOY); experiment: as above
In short: as §1

[13] = test system: upland rice (Oryza sp., var.Tebonnet, RICE); experiment: as above
In short: as §1

[14] = test system: barnyardgrass (Echinochloa crus-galli, ECHCG); experiment: Post-emerge greenhouse herbicide activity screening, phytotoxicity rating
In short: as §1

[15] = test system: common ragweed (Ambrosia artemisiifolia L., AMBEL); experiment: as above
In short: as §1

[16] = test system: green foxtail (Setaria viridis, SETVI); experiment: as above
In short: as §1

[17] = test system: ivyleaf morningglory (Ipomoea hederacea, IPOHE); experiment: as above
In short: as §1

[18] = test system: johnsongrass (Sorghum halepense, SORHA); experiment: as above
In short: as §1

[19] = test system: lambsquarters (Chenopodium album, CHEAL); experiment: as above
In short: as §1

[20] = test system: large crabgrass (Digitaria sanguinalis, DIGSA); experiment: as above
In short: as §1

[21] = test system: redroot pigweed (Amaranthus retroflexus, AMARE); experiment: as above
In short: as §1

[22] = test system: sicklepod (Cassia obtusifolia, CASOB); experiment: as above
In short: as §1

[23] = test system: velvetleaf (Abutilon theophrasti, ABUTH); experiment: as above
In short: as §1

[24] = test system: field corn (Zea mays L., var. Dekalb 535, CORN); experiment: Post-emerge greenhouse screening, crop safety / corn selectivity (phytotoxicity rating)
In short: as §1

[25] = test system: soybean (Glycine max L., var. Pella 86, SOY); experiment: Post-emerge greenhouse screening, crop safety (phytotoxicity rating)
In short: as §1

[26] = test system: upland rice (Oryza sp., var.Tebonnet, RICE); experiment: as above
In short: as §1

COc1ccccc1Oc1cc(-n2c(=O)cc(C(F)(F)F)n(C)c2=S)c(F)cc1C#N [Compound 1-71]
ECHCG phytotoxicity rating (0-100 scale) ([1]; 125 g ai/ha): 100
ECHCG phytotoxicity rating (0-100 scale) ([1]; 250 g ai/ha): 100
AMBEL phytotoxicity rating (0-100 scale) ([2]; 125 g ai/ha): 100
AMBEL phytotoxicity rating (0-100 scale) ([2]; 250 g ai/ha): 100
SETVI phytotoxicity rating (0-100 scale) ([3]; 125 g ai/ha): 100
SETVI phytotoxicity rating (0-100 scale) ([3]; 250 g ai/ha): 100
IPOHE phytotoxicity rating (0-100 scale) ([4]; 125 g ai/ha): 100
IPOHE phytotoxicity rating (0-100 scale) ([4]; 250 g ai/ha): 100
SORHA phytotoxicity rating (0-100 scale) ([5]; 125 g ai/ha): 99
SORHA phytotoxicity rating (0-100 scale) ([5]; 250 g ai/ha): 100
CHEAL phytotoxicity rating (0-100 scale) ([6]; 125 g ai/ha): 100
CHEAL phytotoxicity rating (0-100 scale) ([6]; 250 g ai/ha): 100
DIGSA phytotoxicity rating (0-100 scale) ([7]; 125 g ai/ha): 100
DIGSA phytotoxicity rating (0-100 scale) ([7]; 250 g ai/ha): 100
AMARE phytotoxicity rating (0-100 scale) ([8]; 125 g ai/ha): 100
AMARE phytotoxicity rating (0-100 scale) ([8]; 250 g ai/ha): 100
CASOB phytotoxicity rating (0-100 scale) ([9]; 125 g ai/ha): 95
CASOB phytotoxicity rating (0-100 scale) ([9]; 250 g ai/ha): 100
ABUTH phytotoxicity rating (0-100 scale) ([10]; 125 g ai/ha): 100
ABUTH phytotoxicity rating (0-100 scale) ([10]; 250 g ai/ha): 100
CORN crop damage, phytotoxicity rating (0-100 scale) ([11]; 125 g ai/ha): 0
CORN crop damage, phytotoxicity rating (0-100 scale) ([11]; 250 g ai/ha): 5
SOY crop damage, phytotoxicity rating (0-100 scale) ([12]; 125 g ai/ha): 45
SOY crop damage, phytotoxicity rating (0-100 scale) ([12]; 250 g ai/ha): 60
RICE crop damage, phytotoxicity rating (0-100 scale) ([13]; 125 g ai/ha): 50
RICE crop damage, phytotoxicity rating (0-100 scale) ([13]; 250 g ai/ha): 65
ECHCG phytotoxicity rating (0-100 scale) ([14]; 125 g ai/ha): 35
ECHCG phytotoxicity rating (0-100 scale) ([14]; 250 g ai/ha): 65
AMBEL phytotoxicity rating (0-100 scale) ([15]; 125 g ai/ha): 80
AMBEL phytotoxicity rating (0-100 scale) ([15]; 250 g ai/ha): 90
SETVI phytotoxicity rating (0-100 scale) ([16]; 125 g ai/ha): 85
SETVI phytotoxicity rating (0-100 scale) ([16]; 250 g ai/ha): 85
IPOHE phytotoxicity rating (0-100 scale) ([17]; 125 g ai/ha): 100
IPOHE phytotoxicity rating (0-100 scale) ([17]; 250 g ai/ha): 100
SORHA phytotoxicity rating (0-100 scale) ([18]; 125 g ai/ha): 0
SORHA phytotoxicity rating (0-100 scale) ([18]; 250 g ai/ha): 15
CHEAL phytotoxicity rating (0-100 scale) ([19]; 125 g ai/ha): 100
CHEAL phytotoxicity rating (0-100 scale) ([19]; 250 g ai/ha): 100
DIGSA phytotoxicity rating (0-100 scale) ([20]; 125 g ai/ha): 50
DIGSA phytotoxicity rating (0-100 scale) ([20]; 250 g ai/ha): 60
AMARE phytotoxicity rating (0-100 scale) ([21]; 125 g ai/ha): 100
AMARE phytotoxicity rating (0-100 scale) ([21]; 250 g ai/ha): 100
CASOB phytotoxicity rating (0-100 scale) ([22]; 125 g ai/ha): 50
CASOB phytotoxicity rating (0-100 scale) ([22]; 250 g ai/ha): 50
ABUTH phytotoxicity rating (0-100 scale) ([23]; 125 g ai/ha): 100
ABUTH phytotoxicity rating (0-100 scale) ([23]; 250 g ai/ha): 100
CORN crop damage, phytotoxicity rating (0-100 scale) ([24]; 125 g ai/ha): 0
CORN crop damage, phytotoxicity rating (0-100 scale) ([24]; 250 g ai/ha): 0
SOY crop damage, phytotoxicity rating (0-100 scale) ([25]; 125 g ai/ha): 50
SOY crop damage, phytotoxicity rating (0-100 scale) ([25]; 250 g ai/ha): 75
RICE crop damage, phytotoxicity rating (0-100 scale) ([26]; 125 g ai/ha): 0
RICE crop damage, phytotoxicity rating (0-100 scale) ([26]; 250 g ai/ha): 0
